# Experimental data reported in patent EP2892896B1 (Bristol-Myers Squibb Company, priority 2012, dated 2014).
# Molecular target: T1, human melanin concentrating hormone receptor (MCHR1) (Homo sapiens, UniProt Q99705, A5T/E4Q)
# T1 construct: expressed in transfected cells; host or cells: HEK-293 (stably transfected), membranes
# Test: Radioligand binding assay for assessment of MCHR1 activity
# Settings: membranes from HEK-293 cells expressing a mutated (E4Q, A5T) hMCHR1 receptor; competition with 0.06 - 0.1 nM [Phe13, [125I]Tyr19]-MCH; 90 min
# Description: Radioligand Binding Assay for Assessment of MCHR1 Activity
# An in vitro binding assay was used to determine the compound Ki value or ability to antagonize binding of a peptide agonist to the human melanin concentrating hormone receptor (MCHR1). […] Binding experiments were carried out with 0.5-1.0 µg of membrane protein incubated in a total of 0.2 mL in 25 mM HEPES (pH 7.4) with 10 mM MgCl2, 2 mM EGTA, and 0.1% BSA (Binding Buffer) for 90 min. For competition binding assays, reactions were carried out in the presence of with 0.06 - 0.1 nM [Phe^13, [^125I]Tyr^19]-MCH and increasing concentrations of unlabeled test molecules. […] Filters were dried, 0.05 mL MicroScint 20 was added to each well and radioactivity was subsequently quantified by scintillation counting on a TOPCOUNT® microplate scintillation counter (Packard). Inhibitory constants were determined by nonlinear least squares analysis using a four parameter logistic equation.
# T1 sequence (Q99705 whole entry E4Q/A5T): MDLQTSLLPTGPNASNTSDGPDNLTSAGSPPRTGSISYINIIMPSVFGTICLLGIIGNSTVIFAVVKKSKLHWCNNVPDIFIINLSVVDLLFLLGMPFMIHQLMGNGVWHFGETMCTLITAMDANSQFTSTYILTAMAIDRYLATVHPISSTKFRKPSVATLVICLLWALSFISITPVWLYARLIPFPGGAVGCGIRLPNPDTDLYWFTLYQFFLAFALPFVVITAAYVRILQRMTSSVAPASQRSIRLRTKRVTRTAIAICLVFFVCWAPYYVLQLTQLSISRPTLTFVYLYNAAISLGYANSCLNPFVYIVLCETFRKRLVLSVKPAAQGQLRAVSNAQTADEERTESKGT
row,SMILES,Ki [nM]
1,Cc1cc(N2CCC(Oc3ccc(C(F)(F)F)cc3)C2=O)ccc1OC[C@H](O)CS(C)(=O)=O (stereo partly shown) [Example 98],1430
2,COc1cc(N2CC[C@H](Oc3ccc(-c4ccccc4)cc3)C2=O)ccc1OC[C@H](O)C1CC1 [Example 45],1060
3,CCS(=O)(=O)C[C@@H](O)COc1ccc(N2CCC(Oc3ccc(C4CC4)cc3)C2=O)cc1OC (stereo partly shown) [Example 52],16
4,COc1cc(N2CC[C@@H](Oc3ccc(-c4ccccc4)cc3)C2=O)ccc1OCC(C)(C)O [Example 21],2
5,COc1cc(N2CCC(Oc3ccc(-c4cccc(F)c4)cc3)C2=O)ccc1OCCS(C)(=O)=O (stereo not shown) [Example 68],5
6,"COc1cc(N2CCC(Oc3ccc(-c4ccccc4F)cc3)C2=O)ccc1OCCS(C)(=O)=O (stereo not shown) [Example 67, 3-(2'-Fluorobiphenyl-4-yloxy)-1-(3-methoxy-4-(2-(methylsulfonyl)ethoxy)phenyl)pyrrolidin-2-one]",6
7,"COc1cc(N2CCC(C)(Oc3ccc(OC(F)(F)F)cc3)C2=O)ccc1OCC(C)(C)O (stereo not shown) [Example 13, 1-(4-(2-Hydroxy-2-methylpropoxy)-3-methoxyphenyl)-3-methyl-3-(4-(trifluoromethoxy)phenoxy)pyrrolidin-2-one]",473
8,Cc1cc(N2CCC(Oc3ccc(-c4ccc(F)cc4)cc3)C2=O)ccc1OC[C@@H](O)CS(C)(=O)=O (stereo partly shown) [Example 99],19
9,COc1cc(N2CCC(Oc3ccc(-c4ccc(F)cc4)cc3)C2=O)ccc1OC[C@H](O)CS(C)(=O)=O (stereo partly shown) [Example 59],18
10,Cc1cc(N2CC[C@@H](Oc3ccc(-c4ccc(F)cc4)cc3)C2=O)ccc1OCCS(C)(=O)=O [Example 110],3
11,"Cc1cc(N2CC[C@@H](Oc3ccc(-c4ccccc4)cc3)C2=O)ccc1OCCS(C)(=O)=O (single isomer, unassigned) [Example 106]",636
12,Cc1cc(N2CCC(Oc3ccc(-c4ccccc4)nc3)C2=O)ccc1OCC(C)(C)O (stereo not shown) [Example 88],45
13,COc1cc(N2CC[C@@H](Oc3ccc(-c4ccccc4)cc3)C2=O)ccc1OC[C@H](O)C1CC1 [Example 44],4
14,Cc1cc(N2CCC(Oc3ccc(-c4ccc(F)cc4)cc3)C2=O)ccc1OCCS(C)(=O)=O (stereo not shown) [Example 109],6
15,COc1cc(N2CCC(Oc3ccc(C4CC4)cc3)C2=O)ccc1OC[C@H](O)C1CC1 (stereo partly shown) [Example 46],12
16,COc1cc(N2CCC(Oc3ccc(-c4ccccc4C(F)(F)F)cc3)C2=O)ccc1OCC(C)(C)O (stereo not shown) [Example 28],956
17,COc1cc(N2CCC(Oc3ccc(-n4cccc4)cc3)C2=O)ccc1OCC(C)(C)O (stereo not shown) [Example 38],5
18,CCS(=O)(=O)C[C@@H](O)COc1ccc(N2CCC(Oc3ccc(-c4cccc(F)c4)cc3)C2=O)cc1OC (stereo partly shown) [Example 55],38
19,COc1cc(N2CCC(Oc3ccc(C4CC4)cc3)C2=O)ccc1OC[C@H](O)CS(C)(=O)=O (stereo partly shown) [Example 60],17
20,COc1cc(N2CCC(Oc3ccc(C4CC4)cc3)C2=O)ccc1OCCS(=O)(=O)CC(C)(C)O (stereo not shown) [Example 74],64
21,COc1cc(N2CCC(Oc3cccc(Cl)c3)C2=O)ccc1OCC(C)(C)O (stereo not shown) [Example 2],10000
22,COc1cc(N2CCC(Oc3ccc(-c4ccncc4Cl)cc3)C2=O)ccc1OCC(C)(C)O (stereo not shown) [Example 32],634
23,Cc1cc(N2CCC(Oc3ccc(-c4ccccc4)cc3)C2=O)ccc1OC[C@H](O)CS(C)(=O)=O (stereo partly shown) [Example 95],15

row,SMILES,Ki [nM]
1,COc1cc(N2CCC(Oc3ccc(-c4ccccc4F)c(F)c3)C2=O)ccc1OCC(C)(C)O (stereo not shown) [Example 31],34
2,Cc1cc(N2CCC(Oc3ccc(-c4cccc(F)c4)cc3)C2=O)ccc1OCCS(C)(=O)=O (stereo not shown) [Example 108],5
3,"COc1cc(N2CCC(Oc3ccc(OC(F)(F)F)cc3)C2=O)ccc1OCCS(C)(=O)=O (stereo not shown) [Example 65, 1-(3-Methoxy-4-(2-(methylsulfonyl)ethoxy)phenyl)-3-(4-(trifluoromethoxy)phenoxy)pyrrolidin-2-one]",8
4,COc1cc(N2CCC(Oc3cccc(OC(F)(F)F)c3)C2=O)ccc1OCC(C)(C)O (stereo not shown) [Example 11],5000
5,CS(=O)(=O)CCOc1ccc(N2CCC(Oc3ccc(-c4ccccc4)cc3)C2=O)cc1OCCF (stereo not shown) [Example 72],7
6,COc1cc(N2CC[C@H](Oc3ccc(OC(F)(F)F)cc3)C2=O)ccc1OCC(C)(C)O [Example 16],2340
7,"COc1cc(N2CCC(Oc3ccc(-c4ccccc4F)cc3)C2=O)ccc1OCC(C)(C)O (stereo not shown) [Example 24, 3-(2'-Fluorobiphenyl-4-yloxy)-1-(4-(2-hydroxy-2-methylpropoxy)-3-methoxyphenyl)pyrrolidin-2-one]",9
8,"COc1cc(N2CC[C@H](Oc3ccc(C(F)(F)F)cc3)C2=O)ccc1OCC(C)(C)O (single isomer, unassigned) [Example 10]",6000
9,Cc1cc(N2CCC(Oc3ccc(C4CC4)cc3)C2=O)ccc1OC[C@@H](O)CS(C)(=O)=O (stereo partly shown) [Example 100],42
10,COc1cccc(OC2CCN(c3ccc(OCC(C)(C)O)c(OC)c3)C2=O)c1 (stereo not shown) [Example 4],218
11,CCS(=O)(=O)C[C@@H](O)COc1ccc(N2CCC(Oc3ccc(-c4ccccc4)cc3)C2=O)cc1C (stereo partly shown) [Example 91],7
12,COc1cc(N2CCC(Oc3ccc(Br)c(Cl)c3)C2=O)ccc1OCC(C)(C)O (stereo not shown) [Example 41],522
13,COc1cc(N2CCC(Oc3ccc(C(F)(F)F)cc3)C2=O)ccc1OCC(C)(C)O (stereo not shown) [Example 8],34
14,COc1ccc(OC2CCN(c3ccc(OCC(C)(C)O)c(OC)c3)C2=O)cc1 (stereo not shown) [Example 5],662
15,COc1cc(N2CCC(Oc3ccc(-c4ccccc4OC)cc3)C2=O)ccc1OCC(C)(C)O (stereo not shown) [Example 27],238
16,COc1cc(N2CCC(Oc3ccc(-c4ccccc4Cl)cc3)C2=O)ccc1OCC(C)(C)O (stereo not shown) [Example 25],68
17,Cc1cc(N2CCC(Oc3ccc(Br)nc3)C2=O)ccc1OCC(C)(C)O (stereo not shown) [Example 87],7000
18,Cc1cc(N2CCC(Oc3ccc(-c4ccccc4)cc3)C2=O)ccc1OCC[S+](C)[O-] (stereo not shown) [Example 102],6
19,CCS(=O)(=O)C[C@@H](O)COc1ccc(N2CCC(Oc3ccc(-c4ccc(F)cc4)cc3)C2=O)cc1C (stereo partly shown) [Example 92],22
20,COc1cc(N2CCC(Oc3ccc(OC4CC4)cc3)C2=O)ccc1OCC(C)(C)O (stereo not shown) [Example 23],44
21,COc1cc(N2CCC(Oc3ccc(-c4ccccc4C)cc3)C2=O)ccc1OCC(C)(C)O (stereo not shown) [Example 26],81
22,COc1cc(N2CCC(Oc3ccc(C4CC4)cc3)C2=O)ccc1OC[C@@H](O)CS(C)(=O)=O (stereo partly shown) [Example 64],32
23,COc1cc(N2CCC(Oc3ccc(-c4ccccc4)cc3)C2=O)ccc1OCC1(O)CC(F)(F)C1 (stereo not shown) [Example 47],7

row,SMILES,Ki [nM]
1,COc1cc(N2CCC(Oc3ccc(Cl)cc3)C2=O)ccc1OCC(C)(C)O (stereo not shown) [Example 3],2060
2,COc1cc(N2CCC(Oc3ccc(OC(F)(F)F)cc3)C2=O)ccc1OC[C@H](O)CS(C)(=O)=O (stereo partly shown) [Example 61],65
3,COc1cc(N2CCC(Oc3ccc(-c4ccccc4)cc3)C2=O)ccc1OCCS(=O)(=O)CC(C)(C)O (stereo not shown) [Example 75],13
4,Cc1cc(N2CC[C@H](Oc3ccc(OC(F)(F)F)cc3)C2=O)ccc1OCC(C)(C)O [Example 78],6000
5,Cc1cc(N2CCC(Oc3ccc(-c4ccccc4)cc3)C2=O)ccc1OCC1(O)CC(F)(F)C1 (stereo not shown) [Example 90],10
6,COc1cc(N2CCC(Oc3ccc(-c4ccccc4)cc3)C2=O)ccc1OC[C@@H](O)CS(C)(=O)=O (stereo partly shown) [Example 62],11
7,Cc1cc(N2CCC(Oc3ccc(C(F)(F)F)cc3)C2=O)ccc1OCC(C)(C)O (stereo not shown) [Example 76],26
8,COc1cc(N2CCC(Oc3ccc(Br)c(F)c3)C2=O)ccc1OCC(C)(C)O (stereo not shown) [Example 42],821
9,CCS(=O)(=O)C[C@@H](O)COc1ccc(N2CCC(Oc3ccc(C(F)(F)F)cc3)C2=O)cc1OC (stereo partly shown) [Example 53],109
10,Cc1cc(N2CCC(Oc3ccc(I)cc3)C2=O)ccc1OCC(C)(C)O (stereo not shown) [Example 85],22
11,COc1cc(N2CCC(Oc3ccc(-c4ccccc4)c(Cl)c3)C2=O)ccc1OCC(C)(C)O (stereo not shown) [Example 29],87
12,COc1cc(N2CCC(Oc3ccc(-c4ccccc4)cc3)C2=O)ccc1OCC1(O)CCS(=O)(=O)CC1 (stereo not shown) [Example 57],2
13,COc1cc(N2CCC(Oc3ccc(-c4ccccc4)cc3)C2=O)ccc1OCC(C)(C)O (stereo not shown) [Example 19],4
14,Cc1cc(N2CCC(Oc3ccc(OC(F)(F)F)cc3)C2=O)ccc1OCCS(C)(=O)=O (stereo not shown) [Example 103],40
15,"COc1cc(N2CC[C@@H](Oc3ccc(C(F)(F)F)cc3)C2=O)ccc1OCC(C)(C)O (single isomer, unassigned) [Example 9]",23
16,CCS(=O)(=O)C[C@@H](O)COc1ccc(N2CCC(Oc3ccc(OC(F)(F)F)cc3)C2=O)cc1OC (stereo partly shown) [Example 51],78
17,Cc1cc(N2CCC(Oc3ccc(N4CCOCC4)cc3)C2=O)ccc1OCC(C)(C)O (stereo not shown) [Example 33],903
18,Cc1cc(N2CC[C@@H](Oc3ccc(C4CC4)cc3)C2=O)ccc1OCC(C)(C)O [Example 84],5
19,COc1cc(N2CCC(Oc3ccc(OC(F)(F)F)c(F)c3)C2=O)ccc1OCC(C)(C)O (stereo not shown) [Example 18],959
20,Cc1cc(N2CCC(Oc3ccc(C(F)(F)F)cn3)C2=O)ccc1OCC(C)(C)O (stereo not shown) [Example 86],5000
21,CCS(=O)(=O)C[C@@H](O)COc1ccc(N2CCC(Oc3ccc(C4CC4)cc3)C2=O)cc1C (stereo partly shown) [Example 93],57
